Test results: US11434205B2, “Substituted imidazole carboxylate derivatives and the use thereof” (priority 2018, dated 2022)

How the values were obtained:
[1] = test system: rats; test: Loss of righting reflexes (LORR) assay in rats, ED50 by up and down method; type: in vivo, rat; conditions: tail vein, class symbols; for ED50: Rattus norvegicus
Procedure: The Anesthetic Activity of the Compounds was Assessed in Rats Using a Loss of Righting Reflexes (LORR) Assay
(§1) Adult male Sprague-Dawley rats (250-300 g) were selected for the experiment. […] The anesthesia effects of the compounds were assessed in rats using a LORR assay and a period >30 s was considered as an indicator of general anesthesia. Then the up and down method was used to determine 50% effective dose (ED50). The drugs were administered through the tail vein of rats in a volume of 0.6 mL and at a rate of 0.1 mL/s.

[2] = test system: rats
Procedure: as §1

[3] = test system: rats; test: Pharmacological characteristics at equivalent doses (2×ED50) in rats; conditions: 2×ED50, tail vein; for Adverse reactions: Red urine (incidence): DMSO solution (DMSO alone 10/10); for Onset time: time of LORR; for Adverse reactions: Tremor (incidence): animals affected/animals
Procedure: Comparison of Pharmacological Characteristics of the Compounds at Equivalent Doses (2×ED50) in Rats
Adult male Sprague-Dawley rats (250-300 g) were selected for the experiment (n=8). […] The drugs were administered at a dose twice their ED50 through the tail vein of rats in a volume of 0.6 mL and at a rate of 0.1 mL/s. In addition, the time of LORR was recorded as the onset time of anesthesia. […] Furthermore, the duration of the pharmacological effects is sufficient to meet the time requirements for rapid induction of general anesthesia and for diagnostic examinations, some short invasive clinical examinations, or operations.

[4] = test system: secretion of corticosterone, H295R cell line; test: cells; type: cell-based; conditions: for Corticosterone as an indicator to determine the presence of inhibition: H295R; for EC50: Homo sapiens, NCI-H295R, read-out: EC50 (Corticosterone)
Procedure: (§2) The Effects of the Compounds on Adrenocortical Function In Vitro Test
(§3) Then secretion of the cortisol and corticosterone in the supernatant, was measured using HPLC-MS/MS method to determine whether the compounds of the present invention had adrenotoxic potential.

[5] = test system: secretion of cortisol, H295R cell line; test: cells; type: cell-based; conditions: for Cortisol as an indicator to determine the presence of inhibition: H295R; for EC50: Homo sapiens, NCI-H295R, read-out: EC50 (Cortisol)
Procedure: as §2, §3

Compound: CCC(=O)C1(OC(=O)c2cncn2[C@H](C)c2ccccc2)CC1 [Compound C16]
- ED50 [1]: 0.5 to 1 mg/kg
- Approximate therapeutic index [2]: >14
- Minimal lethal dose [2]: >10 mg/kg
- Righting reflex duration [3]: 1.31 ± 0.95 min
- Adverse reactions: Red urine (incidence) [3]: Red urine (8/8)
- Onset time [3]: 0.73 ± 0.23 min
- Corticosterone as an indicator to determine the presence of inhibition ([4]; Table C3): 0
- EC50 [4]: > 1 µM
- Cortisol as an indicator to determine the presence of inhibition ([5]; Table C3): 0
- EC50 [5]: > 1 µM

Compound: C[C@H](c1ccccc1)n1cncc1C(=O)OC1(C)CCC1=O (stereo partly shown) [Compound A13]
- ED50 [1]: 0.1 to 0.5 mg/kg
- Approximate therapeutic index [2]: >10
- Minimal lethal dose [2]: >4 mg/kg
- Righting reflex duration [3]: 2.31 ± 2.14 min
- Adverse reactions: Red urine (incidence) [3]: Red urine (8/8)
- Onset time [3]: 0.56 ± 0.12 min
- Corticosterone as an indicator to determine the presence of inhibition ([4]; Table A3): 0
- EC50 [4]: > 10 µM
- Cortisol as an indicator to determine the presence of inhibition ([5]; Table A3): 0
- EC50 [5]: > 10 µM

Compound: C[C@H](c1ccccc1)n1cncc1C(=O)OCC1(C(F)F)CCC1 [Compound A19]
- ED50 [1]: 0.1 to 0.5 mg/kg
- Approximate therapeutic index [2]: >10
- Minimal lethal dose [2]: >5 mg/kg
- Righting reflex duration [3]: 6.13 ± 2.87 min
- Adverse reactions: Red urine (incidence) [3]: Red urine (8/8)
- Onset time [3]: 0.36 ± 0.16 min
- Corticosterone as an indicator to determine the presence of inhibition ([4]; Table A3): 0
- EC50 [4]: > 10 µM
- Cortisol as an indicator to determine the presence of inhibition ([5]; Table A3): 0
- EC50 [5]: > 10 µM

Compound: CCC(C)(C)OC(=O)c1cncn1[C@H](C)c1ccccc1 [Compound C19]
- ED50 [1]: 0.1 to 0.5 mg/kg
- Approximate therapeutic index [2]: >20
- Minimal lethal dose [2]: >5 mg/kg
- Righting reflex duration [3]: 1.26 ± 0.99 min
- Adverse reactions: Red urine (incidence) [3]: Red urine (8/8)
- Onset time [3]: 0.45 ± 0.23 min
- Corticosterone as an indicator to determine the presence of inhibition ([4]; Table C3): 0
- EC50 [4]: > 1 µM
- Cortisol as an indicator to determine the presence of inhibition ([5]; Table C3): 0
- EC50 [5]: > 1 µM

Compound: CC#CC(C)OC(=O)c1cncn1[C@H](C)c1ccccc1 (stereo partly shown) [Compound D32]
- ED50 [1]: 0.1 to 0.5 mg/kg
- Approximate therapeutic index [2]: >16
- Minimal lethal dose [2]: >5 mg/kg
- Adverse reactions: Tongue stretching (incidence) [3]: Tongue stretching (2/8),
- Righting reflex duration [3]: 2.14 ± 1.23 min
- Adverse reactions: Red urine (incidence) [3]: Red urine (8/8)
- Onset time [3]: 0.49 ± 0.23 min

Compound: C#CC1(OC(=O)c2cncn2[C@H](C)c2ccccc2)CSC1 [Compound D27]
- ED50 [1]: 0.5 to 1 mg/kg
- Approximate therapeutic index [2]: >10
- Minimal lethal dose [2]: >10 mg/kg
- Righting reflex duration [3]: 2.15 ± 1.03 min
- Adverse reactions: Red urine (incidence) [3]: Red urine (8/8)
- Onset time [3]: 0.32 ± 0.09 min

Compound: CSCCSC(=O)c1cncn1[C@H](C)c1ccccc1 [Compound C30]
- ED50 [1]: 0.5 to 1 mg/kg
- Approximate therapeutic index [2]: >11
- Minimal lethal dose [2]: >11 mg/kg
- Righting reflex duration [3]: 3.67 ± 1.48 min
- Adverse reactions: Red urine (incidence) [3]: Red urine (8/8)
- Onset time [3]: 0.23 ± 0.03 min
- Corticosterone as an indicator to determine the presence of inhibition ([4]; Table C3): 0
- Cortisol as an indicator to determine the presence of inhibition ([5]; Table C3): 0
- EC50 [5]: > 1 µM

Compound: C=CCC1(OC(=O)c2cncn2[C@H](C)c2ccccc2)CCC1 [Compound D12]
- ED50 [1]: 0.5 to 1 mg/kg
- Approximate therapeutic index [2]: >14
- Minimal lethal dose [2]: >10 mg/kg
- Righting reflex duration [3]: 2.15 ± 1.03 min
- Adverse reactions: Red urine (incidence) [3]: Red urine (8/8)
- Onset time [3]: 0.32 ± 0.09 min

Compound: CC#CC(C)(C)OC(=O)c1cncn1[C@H](C)c1ccccc1 [Compound D31]
- ED50 [1]: 0.5 to 1 mg/kg
- Approximate therapeutic index [2]: >13
- Minimal lethal dose [2]: >9 mg/kg
- Righting reflex duration [3]: 2.65 ± 1.10 min
- Adverse reactions: Red urine (incidence) [3]: Red urine (8/8)
- Onset time [3]: 0.41 ± 0.15 min

Compound: C=C=CC1(OC(=O)c2c(F)ncn2[C@H](C)c2ccccc2)CCCCC1 [Compound E36]
- ED50 [1]: 0.5 to 1 mg/kg
- Approximate therapeutic index [2]: >26
- Minimal lethal dose [2]: >5 mg/kg
- Righting reflex duration [3]: 2.21 ± 1.86 min
- Adverse reactions: Red urine (incidence) [3]: (8/8)
- Onset time [3]: 0.49 ± 0.17 min

Compound: CC#CC1(OC(=O)c2cncn2[C@H](C)c2ccccc2)CSC1 [Compound D29]
- ED50 [1]: 0.5 to 1 mg/kg
- Approximate therapeutic index [2]: >13
- Minimal lethal dose [2]: >10 mg/kg
- Righting reflex duration [3]: 1.19 ± 0.64 min
- Adverse reactions: Red urine (incidence) [3]: (8/8)
- Adverse reactions: Tremor (incidence) [3]: Tremor (3/8), Red urine
- Onset time [3]: 0.73 ± 0.10 min

Compound: C#CC1(OC(=O)c2c(F)ncn2[C@H](C)c2ccccc2)COC1 [Compound E4]
- ED50 (mg/kg) [1]: B (B means that the measured ED50 is in the range of 0.10-0.50 mg/kg (excluding 0.10 mg/kg, including 0.50 mg/kg).)
- Approximate therapeutic index [2]: >20
- Minimal lethal dose [2]: >10 mg/kg
- Righting reflex duration [3]: 4.38 ± 1.29 min
- Sedation duration (mg/kg) [3]: 10.65 ± 1.31
- Adverse reactions: Red urine (incidence) [3]: (8/8)
- Onset time [3]: 0.45 ± 0.05 min

Compound: CCC1(COC(=O)c2cncn2[C@H](C)c2ccccc2)CC1 [Compound A9]
- ED50 [1]: 0.1 to 0.5 mg/kg
- Approximate therapeutic index [2]: >13
- Minimal lethal dose [2]: >5 mg/kg
- Righting reflex duration [3]: 4.80 ± 1.25 min
- Adverse reactions: Red urine (incidence) [3]: 8/8
- Adverse reactions: Tremor (incidence) [3]: 5/8
- Onset time [3]: 0.40 ± 0.15 min
- Corticosterone as an indicator to determine the presence of inhibition ([4]; Table A3): 0
- EC50 [4]: > 10 µM
- Cortisol as an indicator to determine the presence of inhibition ([5]; Table A3): 0
- EC50 [5]: > 10 µM

Compound: C=C=CC(CC)OC(=O)c1c(F)ncn1[C@H](C)c1ccccc1 (stereo partly shown) [Compound E77]
- ED50 [1]: 0.5 to 1 mg/kg
- Approximate therapeutic index [2]: >12
- Minimal lethal dose [2]: >10 mg/kg
- Righting reflex duration [3]: 1.90 ± 0.74 min
- Adverse reactions: Red urine (incidence) [3]: urine (8/8)
- Adverse reactions: Tremor (incidence) [3]: (2/8), Red
- Onset time [3]: 0.11 ± 0.03 min

Compound: C[C@H](c1ccccc1)n1cncc1C(=O)OC1(CC2CO2)COC1 (stereo partly shown) [Compound B22]
- ED50 [1]: 0.5 to 1 mg/kg
- Approximate therapeutic index [2]: >10
- Minimal lethal dose [2]: >17 mg/kg
- Righting reflex duration [3]: 1.24 ± 0.12 min
- Adverse reactions: Red urine (incidence) [3]: 8/8
- Adverse reactions: Tremor (incidence) [3]: 4/8
- Onset time [3]: 0.92 ± 0.14 min

Compound: CC#CC1(OC(=O)c2cncn2[C@H](C)c2ccccc2)CCSC1 (stereo partly shown) [Compound D30]
- ED50 [1]: 0.5 to 1 mg/kg
- Approximate therapeutic index [2]: >11
- Minimal lethal dose [2]: >5 mg/kg
- Adverse reactions: Myoclonus (incidence) [3]: Myoclonus (2/8), Red
- Righting reflex duration [3]: 1.32 ± 0.61 min
- Adverse reactions: Red urine (incidence) [3]: urine (8/8)
- Onset time [3]: 0.43 ± 0.22 min

Compound: C[C@H](c1ccccc1)n1cncc1C(=O)OC1(C2CO2)CCC1 (stereo partly shown) [Compound A20]
- ED50 [1]: 0.01 to 0.1 mg/kg
- Approximate therapeutic index [2]: >22
- Minimal lethal dose [2]: >3 mg/kg
- Righting reflex duration [3]: 1.90 ± 0.74 min
- Adverse reactions: Red urine (incidence) [3]: Red urine (8/8)
- Onset time [3]: 0.11 ± 0.03 min
- Corticosterone as an indicator to determine the presence of inhibition ([4]; Table A3): 0
- EC50 [4]: > 10 µM
- Cortisol as an indicator to determine the presence of inhibition ([5]; Table A3): 0
- EC50 [5]: > 10 µM

Compound: C[C@H](c1ccccc1)n1cncc1C(=O)OCC1(C)CSC1 [Compound B8]
- ED50 [1]: 0.5 to 1 mg/kg
- Approximate therapeutic index [2]: >10
- Minimal lethal dose [2]: >10 mg/kg
- Righting reflex duration [3]: 5.00 ± 1.25 min
- Adverse reactions: Red urine (incidence) [3]: Red urine (8/8)
- Onset time [3]: 0.13 ± 0.05 min
